Results as given in patent US20150320892A1, “IMAGING FIBROSIS” (GE Healthcare Limited, priority 2012, published 2015).
Where a name gives a salt, the structure may show the parent alone.

Tests used:
[1] = Biodistribution of 99mTc-Compound 2 in naive rats; parameters: species or system Male Sprague-Dawley rats; conditions: rat
Procedure: Male Sprague-Dawley rats (231±10 g) were group housed in batches of four, with ad libitum access to food and water. […] At various times post injection (2, 30, 60 and 120 minutes) animals were euthanised (n=3 per timepoint), dissected.
Data above are presented as % injected dose (mean±SD; n=3 animals per timepoint).

[2] = Metabolism study of Compound 2 in naive rats (plasma, HPLC); format: in vivo, male rats
Procedure: The in vivo metabolic profile of Compound 2 was determined after intravenous administration to male rats. Post mortem blood was obtained at 60 minutes post injection and centrifuged to separate plasma.
Analysis was carried out by HPLC with prior extraction of Compound 2 from plasma using solid phase extraction (HLB cartridges; Waters). Briefly, cartridges were conditioned with 5 ml, acetonitrile, followed by 2×5 mL water. Plasma was loaded onto the cartridge and then washed with water (2% acetonitrile). Compound 2 was eluted from the cartridge with 7.5 mL water (0.1% TFA) with acetonitrile (0.1% TFA) as a 50:50 ratio.
The extract was evaporated to dryness and reconstituted in 2 mL starting mobile phase (4% acetonitrile (0.1% TFA) and water (0.1% TFA).
0.5 mL of the reconstituted extract anlaysed by HPLC using the same analytical conditions as mentioned above in Example 3 for Compound 2.

recombinant human DPP-IV = molecular target: T1, recombinant human DPP-IV (Homo sapiens, UniProt P27487); assay: DPP-IV assay kit (BPS Bioscience), inhibition of enzymatic activity, Gly-Pro-AMC fluorogenic substrate; format: biochemical; conditions: 10 min, 22° C
T1 construct: purchased BPS Bioscience
T1 sequence (P27487 whole entry): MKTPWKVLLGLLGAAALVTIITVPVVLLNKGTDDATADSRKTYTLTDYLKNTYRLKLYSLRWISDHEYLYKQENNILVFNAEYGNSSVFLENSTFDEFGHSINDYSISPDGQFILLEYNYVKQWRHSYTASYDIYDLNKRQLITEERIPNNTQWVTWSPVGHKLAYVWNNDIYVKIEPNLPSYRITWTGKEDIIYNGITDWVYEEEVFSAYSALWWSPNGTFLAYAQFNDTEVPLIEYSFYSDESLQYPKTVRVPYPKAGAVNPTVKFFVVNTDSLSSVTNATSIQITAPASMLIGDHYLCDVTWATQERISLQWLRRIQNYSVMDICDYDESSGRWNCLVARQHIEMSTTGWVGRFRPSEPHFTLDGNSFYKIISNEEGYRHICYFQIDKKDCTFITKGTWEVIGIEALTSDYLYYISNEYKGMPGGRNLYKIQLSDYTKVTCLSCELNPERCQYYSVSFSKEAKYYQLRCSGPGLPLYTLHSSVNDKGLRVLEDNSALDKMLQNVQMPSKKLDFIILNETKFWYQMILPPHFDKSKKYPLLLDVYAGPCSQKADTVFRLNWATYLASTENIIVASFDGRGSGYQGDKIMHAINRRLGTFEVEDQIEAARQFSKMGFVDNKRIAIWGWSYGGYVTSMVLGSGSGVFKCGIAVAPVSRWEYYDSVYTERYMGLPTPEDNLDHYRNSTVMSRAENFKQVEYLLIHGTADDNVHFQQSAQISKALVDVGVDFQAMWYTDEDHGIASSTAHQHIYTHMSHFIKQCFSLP
Procedure: (§1) The assay uses the fluorogenic substrate Gly-Pro-Aminomethylcoumarin (AMC) to measure either FAP or DPP-IV activity.
(§2) The enzyme activities were assayed in a total volume of 100 uL for 10 min (DPP-IV) and 30 min (FAP) at 22° C. The inhibitors were dissolved in DMSO. IC50 values were computed using GraphPad Prism 4.

recombinant human FAP = molecular target: T2, recombinant human FAP (Homo sapiens, UniProt Q12884); assay: FAP assay kit (BPS Bioscience), inhibition of enzymatic activity, Gly-Pro-AMC fluorogenic substrate; format: biochemical; conditions: for IC50: recombinant human FAP, 30 min, 22° C
T2 construct: purchased BPS Bioscience
T2 sequence (Q12884 1-760): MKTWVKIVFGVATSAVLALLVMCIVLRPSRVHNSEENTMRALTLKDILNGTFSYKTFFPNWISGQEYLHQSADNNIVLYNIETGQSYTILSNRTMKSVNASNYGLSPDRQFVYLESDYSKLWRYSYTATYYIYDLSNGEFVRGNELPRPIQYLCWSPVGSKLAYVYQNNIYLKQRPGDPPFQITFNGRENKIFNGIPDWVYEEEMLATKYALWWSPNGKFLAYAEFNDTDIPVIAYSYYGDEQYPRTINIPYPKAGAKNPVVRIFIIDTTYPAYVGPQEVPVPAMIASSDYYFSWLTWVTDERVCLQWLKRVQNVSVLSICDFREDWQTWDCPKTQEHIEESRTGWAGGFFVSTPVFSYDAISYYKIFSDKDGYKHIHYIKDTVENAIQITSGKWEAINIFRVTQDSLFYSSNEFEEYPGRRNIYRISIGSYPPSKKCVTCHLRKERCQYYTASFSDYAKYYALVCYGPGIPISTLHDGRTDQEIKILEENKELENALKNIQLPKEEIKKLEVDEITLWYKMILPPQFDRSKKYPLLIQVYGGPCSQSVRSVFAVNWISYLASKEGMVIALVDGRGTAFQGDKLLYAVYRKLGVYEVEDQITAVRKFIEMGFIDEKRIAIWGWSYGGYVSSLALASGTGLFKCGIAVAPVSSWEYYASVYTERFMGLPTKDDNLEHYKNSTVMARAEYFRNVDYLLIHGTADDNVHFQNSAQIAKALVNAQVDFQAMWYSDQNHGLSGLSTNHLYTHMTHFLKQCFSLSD
Procedure: as §1, §2

Compound | IC50 (recombinant human DPP-IV) [µM] | IC50 (recombinant human FAP) [nM] | other results
NCCNCC(CNCCN)CC(=O)NCCCCCC(=O)NCC(=O)N1CCC[C@H]1B(O)O [Compound 2, (R) (1-(2-(6-(4-((2-aminoethyl)amino)-3-(((2-aminoethyl)amino)methyl)butanamido)hexanamido)acetyl)pyrrolidin-2-yl)boronic acid] |  |  | biodistribution for in vivo imaging purposes (in words) [1]: good biodistribution; Compound 2 still present in the plasma sample ([2]; male rats, intravenous, plasma 60 minutes after injection): Approximately 80%; in vivo metabolic profile (in words) ([2]; rat, in vivo): good in vivo metabolic profile
(R)-(1-(2-(6-(4-((2-aminoethyl)amino)-3-(((2-aminoethyl)amino)methyl)butanamido)hexanamido)acetyl)pyrrolidin-2-yl)boronic acid, dioxorhenium(V)salt [Compound 1] | > 50 | 9 | affinity for FAP (in words) (recombinant human FAP; in vitro assay): high and selective affinity for FAP
O=C(NCC(=O)N1CCC[C@H]1B(O)O)c1cccc2ccccc12 [FAP reference, (R)-(1-(2-(1-naphthamido)acetyl)pyrrolidin-2-yl)boronic acid, reference compound] | > 50 |  | 
N#Cc1ccc(NCCNCC(=O)N2CCCC2C#N)nc1 (centres unmarked) [DPP-IV reference, NVP DPP 728 hydrochloride, reference compound] |  | > 100000 | 
